Reference: ChEMBL document CHEMBL3046923, “Heteroaromatic analogues of 1,5-diarylpyrazole class as anti-inflammatory agents” (2012)
Active and inactive are the calls of the source. The rule behind the calls is not given here.

Assays:
Assay type in all cases: functional
Rattus norvegicus [1] = assay: Anti-inflammatory activity in Rattus norvegicus Wistar albino (rat) assessed as inhibition of carrageenan-induced paw edema at 50 mg/kg, po administered for 30 min prior to carrageenan challenge measured at 4 hr relative to control
Rattus norvegicus [2] = assay: Anti-inflammatory activity in Rattus norvegicus Wistar albino (rat) assessed as inhibition of carrageenan-induced paw edema at 50 mg/kg, po administered for 30 min prior to carrageenan challenge measured at 3 hr relative to control
Rattus norvegicus [3] = assay: Anti-inflammatory activity in Rattus norvegicus Wistar albino (rat) assessed as inhibition of carrageenan-induced paw edema at 50 mg/kg, po administered for 30 min prior to carrageenan challenge measured at 2 hr relative to control
Rattus norvegicus [4] = assay: Anti-inflammatory activity in Rattus norvegicus Wistar albino (rat) assessed as inhibition of carrageenan-induced paw edema at 50 mg/kg, po administered for 30 min prior to carrageenan challenge measured at 1 hr relative to control
Rattus norvegicus [5] = assay: Anti-inflammatory activity in Rattus norvegicus Wistar albino (rat) assessed as inhibition of carrageenan-induced paw edema at 10 mg/kg, ip administered for 30 min prior to carrageenan challenge measured at 4 hr relative to control; details: route intraperitoneal
Rattus norvegicus [6] = assay: Anti-inflammatory activity in Rattus norvegicus Wistar albino (rat) assessed as inhibition of carrageenan-induced paw edema at 10 mg/kg, ip administered for 30 min prior to carrageenan challenge measured at 3 hr relative to control; details: route intraperitoneal
Rattus norvegicus [7] = assay: Anti-inflammatory activity in Rattus norvegicus Wistar albino (rat) assessed as inhibition of carrageenan-induced paw edema at 10 mg/kg, ip administered for 30 min prior to carrageenan challenge measured at 2 hr relative to control; details: route intraperitoneal
Rattus norvegicus [8] = assay: Anti-inflammatory activity in Rattus norvegicus Wistar albino (rat) assessed as inhibition of carrageenan-induced paw edema at 10 mg/kg, ip administered for 30 min prior to carrageenan challenge measured at 1 hr relative to control; details: route intraperitoneal

Row | SMILES | inhibition in vivo at 50 mg/kg (Rattus norvegicus [1]) | inhibition in vivo at 50 mg/kg (Rattus norvegicus [2]) | inhibition in vivo at 50 mg/kg (Rattus norvegicus [3]) | inhibition in vivo at 50 mg/kg (Rattus norvegicus [4]) | other results
1 | Cc1ccc(-c2cc(C(F)(F)F)n(-c3nc4ccc(S(N)(=O)=O)cc4s3)n2)cc1 |  |  |  |  | inhibition (Rattus norvegicus [1]): inactive; inhibition (Rattus norvegicus [2]): inactive; inhibition (Rattus norvegicus [3]): inactive; inhibition (Rattus norvegicus [4]): inactive
2 | NS(=O)(=O)c1ccc2nc(-n3nc(C(F)(F)F)cc3-c3ccco3)sc2c1 | 54% | 61% | 46% | 27% | 
3 | NS(=O)(=O)c1ccc2nc(-n3nc(C(F)(F)F)cc3-c3ccccc3)sc2c1 | 17% | 54% | 48% | 32% | 
4 | NS(=O)(=O)c1ccc2nc(-n3nc(C(F)(F)F)cc3-c3cccs3)sc2c1 | 15% | 49% | 26% | 5% | 
5 | NS(=O)(=O)c1ccc2nc(-n3nc(C(F)(F)F)cc3-c3ccc(Br)cc3)sc2c1 | 43% | 60% | 56% | 45% | 
6 | NS(=O)(=O)c1ccc2nc(-n3nc(C(F)(F)F)cc3-c3ccc(F)cc3)sc2c1 | 50% | 64% | 48% | 54% | 
7 | COc1ccc(-c2cc(C(F)(F)F)nn2-c2nc3ccc(S(N)(=O)=O)cc3s2)cc1 | 53% | 60% | 31% | 42% | 
8 | Cc1ccc(-c2cc(C(F)(F)F)nn2-c2nc3ccc(S(N)(=O)=O)cc3s2)cc1 | 52% | 56% | 38% | 35% | 
9 | COc1ccc2c(c1)c(CC(=O)O)c(C)n2C(=O)c1ccc(Cl)cc1 [INDOMETHACIN] |  |  |  |  | inhibition in vivo at 10 mg/kg (Rattus norvegicus [5]): 75%; inhibition in vivo at 10 mg/kg (Rattus norvegicus [6]): 78%; inhibition in vivo at 10 mg/kg (Rattus norvegicus [7]): 78%; inhibition in vivo at 10 mg/kg (Rattus norvegicus [8]): 70%
10 | NS(=O)(=O)c1ccc2nc(-n3nc(C(F)(F)F)cc3-c3ccc4ccccc4c3)sc2c1 | 20% | 53% | 27% | 30% | 
11 | NS(=O)(=O)c1ccc2nc(-n3nc(C(F)(F)F)cc3-c3ccc(Cl)cc3)sc2c1 | 42% | 61% | 42% | 44% | 
